Measurements reported in PubChem BioAssay (NCI).
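Briefly, cells in 96-well plates were exposed to five compound concentrations for 48 h, and endpoints were estimated by linear interpolation. At the TGI there is no net growth.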

Columns and labels:
Test in all cases: NCI anticancer screen, dose series, 48 h
SF-539 CNS = test system: SF-539 CNS
NCI/ADR-RES ovarian = test system: NCI/ADR-RES ovarian
MDA-MB-231 breast = test system: MDA-MB-231 breast
SK-OV-3 ovarian = test system: SK-OV-3 ovarian
T-47D breast = test system: T-47D breast
SW-620 colon = test system: SW-620 colon
786-0 renal = test system: 786-0 renal
EKVX NSCLC = test system: EKVX NSCLC
UO-31 renal = test system: UO-31 renal
MOLT-4 leukemia = test system: MOLT-4 leukemia
SK-MEL-5 melanoma = test system: SK-MEL-5 melanoma
SF-268 CNS = test system: SF-268 CNS
OVCAR-5 ovarian = test system: OVCAR-5 ovarian
UACC-257 melanoma = test system: UACC-257 melanoma
SN12C renal = test system: SN12C renal
HOP-62 NSCLC = test system: HOP-62 NSCLC
PC-3 prostate = test system: PC-3 prostate
HOP-92 NSCLC = test system: HOP-92 NSCLC
HS 578T breast = test system: HS 578T breast
SNB-19 CNS = test system: SNB-19 CNS
U251 CNS = test system: U251 CNS
NCI-H522 lung = test system: NCI-H522 lung
RPMI-8226 leukemia = test system: RPMI-8226 leukemia
BT-549 breast = test system: BT-549 breast
HCT-116 colon = test system: HCT-116 colon
NCI-H23 lung = test system: NCI-H23 lung
CAKI-1 renal = test system: CAKI-1 renal
SF-295 CNS = test system: SF-295 CNS
COLO 205 colon = test system: COLO 205 colon
ACHN renal = test system: ACHN renal
MDA-MB-435 = test system: MDA-MB-435
UACC-62 melanoma = test system: UACC-62 melanoma
RXF 393 renal = test system: RXF 393 renal
SK-MEL-28 melanoma = test system: SK-MEL-28 melanoma
M14 melanoma = test system: M14 melanoma
A549 NSCLC = test system: A549 NSCLC
CCRF-CEM leukemia = test system: CCRF-CEM leukemia
IGROV1 ovarian = test system: IGROV1 ovarian
NCI-H226 lung = test system: NCI-H226 lung
KM12 colon = test system: KM12 colon
OVCAR-3 ovarian = test system: OVCAR-3 ovarian
SK-MEL-2 melanoma = test system: SK-MEL-2 melanoma
HCT-15 colon = test system: HCT-15 colon
HL-60(TB) leukemia = test system: HL-60(TB) leukemia
MALME-3M melanoma = test system: MALME-3M melanoma
SR leukemia = test system: SR leukemia
SNB-75 CNS = test system: SNB-75 CNS
LOX IMVI melanoma = test system: LOX IMVI melanoma
A498 renal = test system: A498 renal
OVCAR-4 ovarian = test system: OVCAR-4 ovarian
TK-10 renal = test system: TK-10 renal
MDA-N = test system: MDA-N
K-562 leukemia = test system: K-562 leukemia
HT29 colon = test system: HT29 colon
NCI-H460 lung = test system: NCI-H460 lung
DU-145 prostate = test system: DU-145 prostate
OVCAR-8 ovarian = test system: OVCAR-8 ovarian
MCF7 breast = test system: MCF7 breast

`NCCOc1ccccn1` was tested, and the TGI (SF-539 CNS) was greater than 100 µM, the TGI (NCI/ADR-RES ovarian) was greater than 100 µM and the TGI (MDA-MB-231 breast) was greater than 100 µM. The TGI (SK-OV-3 ovarian) was greater than 100 µM, the TGI (T-47D breast) was greater than 100 µM and the TGI (SW-620 colon) was greater than 100 µM. It also gave a TGI (786-0 renal) greater than 100 µM, a TGI (EKVX NSCLC) greater than 100 µM and a TGI (UO-31 renal) greater than 100 µM. It also gave a TGI (MOLT-4 leukemia) greater than 100 µM, a TGI (SK-MEL-5 melanoma) greater than 100 µM and a TGI (SF-268 CNS) greater than 100 µM. The TGI (OVCAR-5 ovarian) was greater than 100 µM, the TGI (UACC-257 melanoma) was greater than 100 µM and the TGI (SN12C renal) was greater than 100 µM. The TGI (HOP-62 NSCLC) was greater than 100 µM, the TGI (PC-3 prostate) was greater than 100 µM and the TGI (HOP-92 NSCLC) was greater than 100 µM. For the same molecule, the TGI (HS 578T breast) was greater than 100 µM, the TGI (SNB-19 CNS) was greater than 100 µM and the TGI (U251 CNS) was greater than 100 µM. The TGI (NCI-H522 lung) was greater than 100 µM, the TGI (RPMI-8226 leukemia) was greater than 100 µM and the TGI (BT-549 breast) was greater than 100 µM. It also gave a TGI (HCT-116 colon) greater than 100 µM, a TGI (NCI-H23 lung) greater than 100 µM and a TGI (CAKI-1 renal) greater than 100 µM. For the same molecule, the TGI (SF-295 CNS) was greater than 100 µM, the TGI (COLO 205 colon) was greater than 100 µM and the TGI (ACHN renal) was greater than 100 µM. It also gave a TGI (MDA-MB-435) greater than 100 µM, a TGI (UACC-62 melanoma) greater than 100 µM and a TGI (RXF 393 renal) greater than 100 µM. The TGI (SK-MEL-28 melanoma) was greater than 100 µM, the TGI (M14 melanoma) was greater than 100 µM and the TGI (A549 NSCLC) was greater than 100 µM. For the same molecule, the TGI (CCRF-CEM leukemia) was greater than 100 µM, the TGI (IGROV1 ovarian) was greater than 100 µM and the TGI (NCI-H226 lung) was greater than 100 µM. It also gave a TGI (KM12 colon) greater than 100 µM, a TGI (OVCAR-3 ovarian) greater than 100 µM and a TGI (SK-MEL-2 melanoma) greater than 100 µM. The TGI (HCT-15 colon) was greater than 100 µM, the TGI (HL-60(TB) leukemia) was greater than 100 µM and the TGI (MALME-3M melanoma) was greater than 100 µM. The TGI (SR leukemia) was greater than 100 µM, the TGI (SNB-75 CNS) was greater than 100 µM and the TGI (LOX IMVI melanoma) was greater than 100 µM. It also gave a TGI (A498 renal) greater than 100 µM, a TGI (OVCAR-4 ovarian) greater than 100 µM and a TGI (TK-10 renal) greater than 100 µM. It also gave a TGI (MDA-N) greater than 100 µM, a TGI (K-562 leukemia) greater than 100 µM and a TGI (HT29 colon) greater than 100 µM. It also gave a TGI (NCI-H460 lung) greater than 100 µM, a TGI (DU-145 prostate) greater than 100 µM and a TGI (OVCAR-8 ovarian) greater than 100 µM. It also gave a TGI (MCF7 breast) greater than 100 µM.

`CCc1nnc2sc(-c3ccc(-c4ccc(Cl)cc4Cl)o3)nn12` showed a TGI (NCI/ADR-RES ovarian) greater than 100 µM, a TGI (MDA-MB-231 breast) greater than 100 µM and a TGI (SK-OV-3 ovarian) greater than 100 µM. The TGI (T-47D breast) was greater than 100 µM, the TGI (SW-620 colon) was greater than 100 µM and the TGI (786-0 renal) was greater than 100 µM. For the same molecule, the TGI (EKVX NSCLC) was greater than 100 µM, the TGI (UO-31 renal) was greater than 100 µM and the TGI (MOLT-4 leukemia) was greater than 100 µM. For the same molecule, the TGI (SK-MEL-5 melanoma) was greater than 100 µM, the TGI (SF-268 CNS) was greater than 100 µM and the TGI (OVCAR-5 ovarian) was greater than 100 µM. The TGI (UACC-257 melanoma) was greater than 100 µM, the TGI (SN12C renal) was greater than 100 µM and the TGI (HOP-62 NSCLC) was greater than 100 µM. For the same molecule, the TGI (PC-3 prostate) was greater than 100 µM, the TGI (HOP-92 NSCLC) was greater than 100 µM and the TGI (HS 578T breast) was greater than 100 µM. It also gave a TGI (SNB-19 CNS) greater than 100 µM, a TGI (U251 CNS) greater than 100 µM and a TGI (NCI-H522 lung) greater than 100 µM. For the same molecule, the TGI (RPMI-8226 leukemia) was greater than 100 µM, the TGI (BT-549 breast) was greater than 100 µM and the TGI (HCT-116 colon) was greater than 100 µM. The TGI (NCI-H23 lung) was greater than 100 µM, the TGI (CAKI-1 renal) was greater than 100 µM and the TGI (SF-295 CNS) was greater than 100 µM. The TGI (COLO 205 colon) was greater than 100 µM, the TGI (ACHN renal) was greater than 100 µM and the TGI (MDA-MB-435) was greater than 100 µM. The TGI (RXF 393 renal) was 22.3 µM, the TGI (SK-MEL-28 melanoma) was greater than 100 µM and the TGI (M14 melanoma) was greater than 100 µM. For the same molecule, the TGI (A549 NSCLC) was greater than 100 µM, the TGI (CCRF-CEM leukemia) was greater than 100 µM and the TGI (IGROV1 ovarian) was greater than 100 µM. It also gave a TGI (NCI-H226 lung) greater than 100 µM, a TGI (KM12 colon) greater than 100 µM and a TGI (OVCAR-3 ovarian) greater than 100 µM. The TGI (SK-MEL-2 melanoma) was greater than 100 µM, the TGI (HCT-15 colon) was greater than 100 µM and the TGI (HL-60(TB) leukemia) was greater than 100 µM. For the same molecule, the TGI (MALME-3M melanoma) was greater than 100 µM, the TGI (SR leukemia) was greater than 100 µM and the TGI (SNB-75 CNS) was 56 µM. The TGI (LOX IMVI melanoma) was greater than 100 µM, the TGI (A498 renal) was greater than 100 µM and the TGI (OVCAR-4 ovarian) was greater than 100 µM. For the same molecule, the TGI (TK-10 renal) was greater than 100 µM, the TGI (MDA-N) was greater than 100 µM and the TGI (K-562 leukemia) was greater than 100 µM. For the same molecule, the TGI (HT29 colon) was greater than 100 µM, the TGI (NCI-H460 lung) was greater than 100 µM and the TGI (DU-145 prostate) was greater than 100 µM. It also gave a TGI (OVCAR-8 ovarian) greater than 100 µM.
